Consider three molecules from patent US9133235B2, “Macrocyclic antagonists of the motilin receptor for treatment of gastrointestinal dysmotility disorders” (Ocera Therapeutics, Inc., priority 2006, dated 2015).

Molecules are shown by their SMILES. Some results are limits rather than exact numbers.

The test system of data set [1] is strips of rabbit duodenum. The experiment in a line: Rabbit duodenum contractility assay. The conditions noted are these: pA2 from Schild plot, motilin dose response after 15 minute incubation. On the procedure:
D. Rabbit Duodenum Contractility Assay
Evaluation of compounds of the invention for ex vivo activity was conducted on strips of rabbit duodenum according to literature methods. (Van Assche, G.; Depoortere, I.; Thijs, T.; Janssens, J. J.; Peeters, T. L. Eur. J. Pharmacol. 1997, 337, 267-274; Matthijs, G.; Peeters, T. L.; Vantrappen, G. Naunyn-Schmiedeberg's Arch. Pharmacol. 1989, 339, 332-339.) Related methods can also be employed for this type of study. (Tomomasa, T.; Yagi, H.; Kimura, S.; Snape, W. J., Jr.; Hyman, P. E. Pediatric Res. 1989, 26, 458-461; Takanishi, H.; Yogo, K.; Ozaki, M.; Akima, M.; Koga, H.; Nabata, H. J. Pharm. Exp. Ther. 1995, 273, 624-628.)
Duodenal segments were vertically suspended in organ chambers of 10 mL filled with Krebs buffer and connected to an isotonic force transducer, with a preload of 1 g. After a stabilization period, the muscle strips were challenged with 10^−4 M acetylcholine and washed. This was repeated until a stable maximal contraction was obtained (2-3 times), with an interval of at least 20 minutes.
After a stable base line was reached, test compounds were added to the bath. After a 15 minute incubation, a dose response to motilin was recorded by adding logarithmically increasing concentrations of motilin to the bath (final concentration 10^−9 to 10^−6 M). A blank experiment (no test compound present) was also performed. At the end of the dose response curve, a supramaximal dose of acetylcholine (10^−4 M) was given and this response was used as a reference (100% contraction).
The results of experiments at different concentrations of test compound were combined and analyzed to derive the pA2 value from the Schild plot.

The target of another data set is T1, CYP1A2 (Homo sapiens, UniProt P05177).
T1 construct: purchased BD Gentest, Becton-Dickinson (Supersomes); host or cells: insect cells (microsomes)
T1 sequence (P05177 1-516): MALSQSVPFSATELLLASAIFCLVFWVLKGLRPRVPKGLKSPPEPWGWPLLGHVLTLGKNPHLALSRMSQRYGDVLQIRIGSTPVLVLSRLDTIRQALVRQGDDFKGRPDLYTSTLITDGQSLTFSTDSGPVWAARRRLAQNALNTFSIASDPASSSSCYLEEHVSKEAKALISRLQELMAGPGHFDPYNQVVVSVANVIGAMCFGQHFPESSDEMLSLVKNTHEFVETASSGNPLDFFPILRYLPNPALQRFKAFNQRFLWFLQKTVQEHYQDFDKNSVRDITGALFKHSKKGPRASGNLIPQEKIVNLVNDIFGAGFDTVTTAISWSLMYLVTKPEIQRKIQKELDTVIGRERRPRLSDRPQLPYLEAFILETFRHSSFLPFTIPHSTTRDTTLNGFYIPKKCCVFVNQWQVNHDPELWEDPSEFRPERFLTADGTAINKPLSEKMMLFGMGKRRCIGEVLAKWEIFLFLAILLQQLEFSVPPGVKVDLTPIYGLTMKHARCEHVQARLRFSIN
The experiment in a line: Cytochrome P450 inhibition, CYP1A2. The following applies: Supersomes; read-out: IC50 (μM) 1A2. Format: in vitro ADME. The source says: (§1) F. Assay for Cytochrome P450 Inhibition
(§2) Cytochrome P450 enzymes are implicated in the phase I metabolism of drugs. The majority of drug-drug interactions are metabolism-based and, moreover, these interactions typically involve inhibition of cytochrome P450s. Six CYP450 enzymes (CYP1A2, CYP2C8, CYP2C9, CYP2C19, CYP2D6 and CYP3A4) appear to be commonly responsible for the metabolism of most drugs and the associated drug-drug interactions. Assays to determine the binding of compounds of the invention to the various metabolically important isoforms of cytochrome P450 metabolizing enzymes are commercially available, for example NoAb BioDiscoveries (Mississaugua, ON, Canada) and Absorption Systems (Exton, Pa., USA). As well, a number of appropriate methods have been described or reviewed in the literature. (White, R. E. Ann. Rev. Pharmacol. Toxicol. 2000, 40, 133-157; Li, A. P. Drug. Disc. Today 2001, 6, 357-366; Turpeinen, M.; Korhonen, L. E. Tolonen, A.; et al. Eur. J. Pharm. Sci. 2006, 29, 130-138.)
(§3) The concentration of the inhibitor or test compound that inhibited metabolite formation by 50% (IC50) was calculated by non-linear regression analysis of the % inhibition vs. log concentration (M) curve.

The next data set has as its target T2, CYP2C8 (Homo sapiens, UniProt P10632).
T2 construct: purchased BD Gentest, Becton-Dickinson (Supersomes); host or cells: insect cells (microsomes)
T2 sequence (P10632 1-490): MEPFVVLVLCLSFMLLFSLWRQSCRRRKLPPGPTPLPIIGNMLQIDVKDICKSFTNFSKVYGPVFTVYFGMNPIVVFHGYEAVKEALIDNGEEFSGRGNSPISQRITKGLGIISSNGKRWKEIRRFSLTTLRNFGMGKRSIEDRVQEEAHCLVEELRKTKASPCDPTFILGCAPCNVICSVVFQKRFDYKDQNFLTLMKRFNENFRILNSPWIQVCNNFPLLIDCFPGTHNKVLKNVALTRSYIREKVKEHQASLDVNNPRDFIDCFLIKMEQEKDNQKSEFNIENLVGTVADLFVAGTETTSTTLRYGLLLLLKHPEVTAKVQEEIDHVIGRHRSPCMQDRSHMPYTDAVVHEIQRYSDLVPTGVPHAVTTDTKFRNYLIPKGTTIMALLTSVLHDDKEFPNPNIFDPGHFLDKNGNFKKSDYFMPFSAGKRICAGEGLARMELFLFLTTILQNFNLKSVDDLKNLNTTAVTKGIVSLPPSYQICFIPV
The data set can be described thus: Cytochrome P450 inhibition, CYP2C8. Format: in vitro ADME. The following applies: Supersomes; read-out: IC50 (μM) 2C8.
Excerpt: as §1, §2, §3

Another data set has as its target T3, CYP2C19 (Homo sapiens, UniProt P33261).
T3 construct: purchased BD Gentest, Becton-Dickinson (Supersomes); host or cells: insect cells (microsomes)
The data set can be described thus: Cytochrome P450 inhibition, CYP2C19. The following applies: Supersomes; read-out: IC50 (μM) 2C19. Format: in vitro ADME.
Excerpt: as §1, §2, §3

T3 sequence (P33261 whole entry): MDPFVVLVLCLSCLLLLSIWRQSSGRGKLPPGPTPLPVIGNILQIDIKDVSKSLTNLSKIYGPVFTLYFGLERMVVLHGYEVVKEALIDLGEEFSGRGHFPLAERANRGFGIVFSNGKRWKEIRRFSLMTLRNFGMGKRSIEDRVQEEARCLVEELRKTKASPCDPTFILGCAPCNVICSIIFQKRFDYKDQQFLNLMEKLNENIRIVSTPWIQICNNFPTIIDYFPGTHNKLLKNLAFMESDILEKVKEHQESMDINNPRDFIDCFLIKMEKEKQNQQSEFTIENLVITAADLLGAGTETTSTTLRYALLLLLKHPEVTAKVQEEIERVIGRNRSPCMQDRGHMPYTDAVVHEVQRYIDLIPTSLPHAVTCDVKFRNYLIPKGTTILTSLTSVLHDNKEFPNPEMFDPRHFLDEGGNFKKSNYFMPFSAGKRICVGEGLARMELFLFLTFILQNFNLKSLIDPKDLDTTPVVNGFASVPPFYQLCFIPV

`CC(C)[C@H]1NC(=O)[C@@H](Cc2cccc(C(F)(F)F)c2)NCCOc2ccccc2CCCNC(=O)[C@H](CN(C)C)NC1=O` [Compound 502]: the “Contractile Potency (pA2)” value in data set [1] was found to be 7.92.

`CCC[C@@H]1NC(=O)[C@@H](C(C)C)NC(=O)[C@@H](Cc2cccc(F)c2)N[C@@H](C)COc2ccccc2CCCNC1=O` [Compound 551]: the “Contractile Potency (pA2)” value in data set [1] was found to be 8.29. Moreover, the IC50 at CYP1A2 is > 100 µM; at CYP2C8 it was > 100 µM; at CYP2C19 it was 37 µM.

With `CCC[C@@H]1NC(=O)[C@@H](C(C)C)NC(=O)[C@@H](Cc2ccc(O)c(C(C)(C)C)c2)NCCOc2ccccc2CCCNC1=O` [Compound 553], in data set [1], the “Contractile Potency (pA2)” value stood at 8.71. The IC50 on CYP1A2, at CYP2C8 and on CYP2C19 was > 100 µM each time.

What is called IC50 is the concentration that inhibits the measured activity by half.
